Experimental findings from patent US20230108906A1, “SUBSTITUTED BICYCLIC AND TRICYCLIC UREAS AND AMIDES, ANALOGUES THEREOF, AND METHODS USING SAME” (Arbutus Biopharma Corporation, priority 2019, published 2023) are described below.

A value given as a limit tells only on which side of the number the result lay.

One assay concerns HBV rcDNA in HepDE19 cells. Kind of assay: HepDE19 assay with bDNA quantitation of HBV rcDNA. Format: cell-based, hepatitis B virus (HBV). The note with it: Hepatitis B virus, HepDE19, 168 h, inhibition of rcDNA formation in HepDE19 cells (HepG2 derived), Tet-free medium, 7 day incubation, Quantigene 2.0 bDNA readout, top concentration 25 μM; read-out: DE-19bDNA EC50. The method in brief:
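HepDE19 cells (HepG2-derived, Tet-regulated HBV) switched to Tet-free medium, then treated 7 days at 37 °C with compound, 8-point titration from 25 μM, 0.5% DMSO. rcDNA quantified by bDNA with HBV probes; EC50/EC90 via 4-parameter fit. Viability (CC50) by CellTiter-Glo ATP on 5,000 cells/well after 4 days.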
For the molecule `CN(C(=O)Nc1ccc(F)c(Cl)c1)C1C[S+]([O-])Cc2[nH]c(=O)c3cc(F)ccc3c21` (centres unmarked) [Compound 193, 3-(3-Chloro-4-fluorophenyl)-1-(8-fluoro-3-oxido-6-oxo-1,4,5,6-tetrahydro-2H-thiopyrano[3,4-c]isoquinolin-1-yl)-1-methylurea], the EC50 was determined as 4.4 µM.

In the case of `COc1nc2c(c3ccccc13)C(N(C)C(=O)Nc1ccc(F)c(Cl)c1)CCC2` (centres unmarked) [Compound 34, 3-(3-Chloro-4-fluorophenyl)-1-(6-methoxy-1,2,3,4-tetrahydrophenanthridin-1-yl)-1-methylurea], the EC50 was determined as 1.8 µM.

Turning to `CC(C)CN(C(=O)Nc1ccc(F)c(F)c1)C1CCc2[nH]c(=O)cc(C(F)(F)F)c21` (centres unmarked) [Compound 5, 3-(3,4-Difluorophenyl)-1-isobutyl-1-(2-oxo-4-(trifluoromethyl)-2,5,6,7-tetrahydro-1H-cyclopenta[b]pyridin-5-yl)urea], the EC50 amounted to 1.1 µM.

On to `CN(C(=O)Nc1ccc(F)c(C#N)c1)[C@@H]1COCc2[nH]c(=O)c3cc(F)c(F)cc3c21` (single isomer, unassigned) [Compound 70], for which the EC50 amounted to 0.01 µM.

For `CN(C(=O)Nc1ccc(F)cc1)C1CCCc2[nH]c(=O)c3cc(F)c(F)cc3c21` (centres unmarked) [Compound 19, 1-(8,9-Difluoro-6-oxo-1,2,3,4,5,6-hexahydrophenanthridin-1-yl)-3-(4-fluorophenyl)-1-methylurea], the EC50 was determined as 0.16 µM.

For `CN(C(=O)Nc1ccc(F)c(Cl)c1)[C@@H]1COCc2c1c1cc(F)c(F)cc1c(=O)n2CCO` [Compound 254, (S)-3-(3-Chloro-4-fluorophenyl)-1-(8,9-difluoro-5-(2-hydroxyethyl)-6-oxo-1,4,5,6-tetrahydro-2H-pyrano[3,4-c]isoquinolin-1-yl)-1-methylurea], the EC50 was 0.058 µM.

As for `CN(C(=O)Nc1ccc(F)c(Cl)c1)C1COCc2[nH]c(=O)c3sccc3c21` (centres unmarked) [Compound 95, 3-(3-Chloro-4-fluorophenyl)-1-methyl-1-(6-oxo-1,4,5,6-tetrahydro-2H-pyrano[3,4-b]thieno[3,2-d]pyridin-1-yl)urea], the EC50 came out at 0.03 µM.

Turning to `CN(C(=O)Nc1ccc(F)c(C#N)c1)C1COCc2[nH]c(=O)c3cc(Cl)ccc3c21` (centres unmarked) [Compound 65, 1-(8-Chloro-6-oxo-1,4,5,6-tetrahydro-2H-pyrano[3,4-c]isoquinolin-1-yl)-3-(3-cyano-4-fluorophenyl)-1-methylurea], the EC50 was 0.08 µM.

For `CN(C(=O)Nc1ccc(F)c(C(F)F)c1)[C@@H]1COCc2nc(OCCN)c3cc(F)c(F)cc3c21` [Compound 252, (S)-1-(6-(2-Aminoethoxy)-8,9-difluoro-1,4-dihydro-2H-pyrano[3,4-c]isoquinolin-1-yl)-3-(3-(difluoromethyl)-4-fluorophenyl)-1-methylurea], the EC50 came out at 0.02 µM.

As to `CN(C(=O)Nc1ccc(F)c(Cl)c1)[C@@H]1COCc2[nH]c(=O)c3cc(F)c(F)cc3c21` (single isomer, unassigned) [Compound 72], the EC50 stood at 0.01 µM.

Turning to `CN(C(=O)Nc1ccc(F)c(C(F)F)c1)C1COCc2[nH]c(=O)c3cc(F)ccc3c21` (single isomer, unassigned) [Compound 123, 3-(3-(Difluoromethyl)-4-fluorophenyl)-1-(8-fluoro-6-oxo-1,4,5,6-tetrahydro-2H-pyrano[3,4-c]isoquinolin-1-yl)-1-methylurea], the EC50 worked out at 0.56 µM.

`CCN(C(=O)Nc1ccc(F)c(Cl)c1)[C@@H]1COCc2[nH]c(=O)c3cc(F)c(F)cc3c21` (single isomer, unassigned) [Compound 88]: the EC50 came out at 0.01 µM.

On to `CN(C(=O)Nc1ccc(F)c(C(F)F)c1)[C@@H]1COCc2c1c1cc(F)c(F)cc1c(=O)n2C` [Compound 233, (S)-1-(8,9-Difluoro-5-methyl-6-oxo-1,4,5,6-tetrahydro-2H-pyrano[3,4-c]isoquinolin-1-yl)-3-(3-(difluoromethyl)-4-fluorophenyl)-1-methylurea], for which the EC50 stood at 0.02 µM.

For the molecule `CC(C)CN(C(=O)Nc1ccc(F)c(Cl)c1)C1COCc2[nH]c(=O)c3cc(F)ccc3c21` (centres unmarked) [Compound 43, 3-(3-Chloro-4-fluorophenyl)-1-(8-fluoro-6-oxo-1,4,5,6-tetrahydro-2H-pyrano[3,4-c]isoquinolin-1-yl)-1-isobutylurea], the EC50 turned out to be 0.01 µM.

With `CN(C(=O)Nc1ccc(F)c(Cl)c1)C1COCc2nc(NCCN)c3cc(F)c(F)cc3c21` (centres unmarked) [Compound 240], the EC50 stood at 0.59 µM.

Regarding `CN(C(=O)Nc1ccc(Cl)c(F)c1)[C@@H]1COCc2[nH]c(=O)c3cc(F)c(F)cc3c21` [Compound 141, (S)-3-(4-Chloro-3-fluorophenyl)-1-(8,9-difluoro-6-oxo-1,4,5,6-tetrahydro-2H-pyrano[3,4-c]isoquinolin-1-yl)-1-methylurea], the EC50 was 0.02 µM.

Staying with this assay, now noted: Hepatitis B virus, HepDE19, 168 h, read-out: DE-19bDNA EC50 (uM), inhibition of rcDNA formation in HepDE19 cells (HepG2 derived), Tet-free medium, 7 day incubation, Quantigene 2.0 bDNA readout, top concentration 25 μM.
Take `[2H]C([2H])([2H])N(C(=O)Nc1ccc(F)c(Cl)c1)[C@]1([2H])COCc2[nH]c(=O)c3cc(F)c(F)cc3c21` (single isomer, unassigned) [Compound 146]: the EC50 is 0.01 µM.

Consider `CN(C(=O)N1Cc2ccc(C(F)(F)F)cc2C1)C1CNCc2[nH]c(=O)c3cc(F)c(F)cc3c21` (single isomer, unassigned) [Compound 231, N-(8,9-Difluoro-6-oxo-1,2,3,4,5,6-hexahydrobenzo[c][1,7]naphthyridin-1-yl)-N-methyl-5-(trifluoromethyl)isoindoline-2-carboxamide], for which the EC50 is not below 25 µM.

Staying with this assay, now noted: inhibition of rcDNA formation in HepDE19 cells (HepG2 derived), Tet-free medium, 7 day incubation, Quantigene 2.0 bDNA readout, top concentration 25 μM; read-out: DE-19bDNA EC50.
Take `CN(C(=O)Nc1ccc(F)c(C(F)F)c1)C1CNCc2[nH]c(=O)c3cc(F)c(F)cc3c21` (single isomer, unassigned) [Compound 217, 1-(8,9-Difluoro-6-oxo-1,2,3,4,5,6-hexahydrobenzo[c][1,7]naphthyridin-1-yl)-3-(3-(difluoromethyl)-4-fluorophenyl)-1-methylurea]: the EC50 was 0.04 µM.

For the molecule `CCN(C(=O)Nc1ccc(F)c(Cl)c1)C1CCCc2[nH]c(=O)c3c(c21)CCCC3` (single isomer, unassigned) [Compound 53, 3-(3-Chloro-4-fluorophenyl)-1-ethyl-1-(6-oxo-1,2,3,4,5,6,7,8,9,10-decahydrophenanthridin-1-yl)urea], the EC50 came to 2.6 µM.

As for `CN(C(=O)Nc1ccc(F)c(Cl)c1)C1C[S+]([O-])Cc2[nH]c(=O)c3cc(F)ccc3c21` (single isomer, unassigned) [Compound 196, 3-(3-Chloro-4-fluorophenyl)-1-(8-fluoro-3-oxido-6-oxo-1,4,5,6-tetrahydro-2H-thiopyrano[3,4-c]isoquinolin-1-yl)-1-methylurea], the EC50 came out at 22 µM.

On to `CN(C(=O)Nc1ccc(F)c(Cl)c1)C1COCc2[nH]c(=O)c3c(c21)COCC3` (single isomer, unassigned) [Compound 84, 3-(3-Chloro-4-fluorophenyl)-1-methyl-1-(5-oxo-4,5,6,7,9,10-hexahydro-1H,3H-dipyrano[3,4-b:3′,4′-d]pyridin-10-yl)urea], for which the EC50 came to 0.83 µM.

On to `CN(C(=O)Nc1ccc(F)c(Cl)c1)C1C[S+]([O-])Cc2[nH]c(=O)c3cc(F)ccc3c21` (single isomer, unassigned) [Compound 195], for which the EC50 worked out at 0.9 µM.

In the case of `CN1Cc2[nH]c(=O)c3cc(F)ccc3c2C(N(C)C(=O)Nc2ccc(F)c(C#N)c2)C1` (single isomer, unassigned) [Compound 163, 3-(3-Cyano-4-fluorophenyl)-1-(8-fluoro-3-methyl-6-oxo-1,2,3,4,5,6-hexahydrobenzo[c][1,7]naphthyridin-1-yl)-1-methylurea], the EC50 was 23 µM.

Regarding `O=C(Nc1ccc(F)c(Cl)c1)N(CCCO)C1COCc2[nH]c(=O)c3cc(F)ccc3c21` (single isomer, unassigned) [Compound 110, 3-(3-Chloro-4-fluorophenyl)-1-(8-fluoro-6-oxo-1,4,5,6-tetrahydro-2H-pyrano[3,4-c]isoquinolin-1-yl)-1-(3-hydroxypropyl)urea], the EC50 stood at 0.02 µM.

Regarding `CS(=O)(=O)CCN(C(=O)Nc1ccc(F)c(Cl)c1)C1COCc2[nH]c(=O)c3cc(F)c(F)cc3c21` (single isomer, unassigned) [Compound 140, 3-(3-Chloro-4-fluorophenyl)-1-(8,9-difluoro-6-oxo-1,4,5,6-tetrahydro-2H-pyrano[3,4-c]isoquinolin-1-yl)-1-(2-(methylsulfonyl)ethyl)urea], the EC50 amounted to 0.01 µM.

Consider `CC(=O)N1Cc2[nH]c(=O)c3cc(F)c(F)cc3c2C(N(C)C(=O)Nc2ccc(F)c(Cl)c2)C1` (single isomer, unassigned) [Compound 159, 1-(3-Acetyl-8,9-difluoro-6-oxo-1,2,3,4,5,6-hexahydrobenzo[c][1,7]naphthyridin-1-yl)-3-(3-chloro-4-fluorophenyl)-1-methylurea], for which the EC50 was determined as 12 µM.

In the case of `CN(C(=O)Nc1ccc(F)c(C#N)c1)C1CSCc2[nH]c(=O)c3cc(F)ccc3c21` (single isomer, unassigned) [Compound 185, 3-(3-Cyano-4-fluorophenyl)-1-(8-fluoro-6-oxo-1,4,5,6-tetrahydro-2H-thiopyrano[3,4-c]isoquinolin-1-yl)-1-methylurea], the EC50 came out at 3.3 µM.

In the case of `CC(=O)N1Cc2[nH]c(=O)c3cc(F)c(F)cc3c2C(N(C)C(=O)Nc2ccc(F)c(C#N)c2)C1` (single isomer, unassigned) [Compound 178, 1-(3-Acetyl-8,9-difluoro-6-oxo-1,2,3,4,5,6-hexahydrobenzo[c][1,7]naphthyridin-1-yl)-3-(3-cyano-4-fluorophenyl)-1-methylurea], the EC50 amounted to 11 µM.
